Tests used:
[1] = test system: Mus musculus; assay: Antialzheimer activity in scopolamine-induced impairment in ICR mouse assessed as latency time at 15 mg/kg, ip administered once a day for 10 days pretreated with scopolamine for 30 mins and measured at 5th day of training session by Morris water maze test (reference value: 29.4 +/- 5.77 sec); format: functional
[2] = test system: Mus musculus; assay: (§1) Antialzheimer activity in scopolamine-induced impairment in ICR mouse assessed as total entries at 15 mg/kg, ip administered once a day for 10 days pretreated with scopolamine for 30 mins and measured at 5th day of training session by Morris water maze test (reference value: 2.19 +/- 0.16); format: functional
[3] = test system: Mus musculus; assay: as §1, with “distance to platform” for “entries”, “6.56” for “2.19”, “1.27 m)” for “0.16)”; format: functional
[4] = test system: PC-12; assay: Neuroprotective activity against amyloid beta (1 to 42 residues) induced cytotoxicity in rat PC12 cells assessed as cell viability at 10 uM incubated for 24 hrs by MTT assay (reference value: 100%); format: functional; details: PC-12, 24 h, read-out: Activity
[5] = test system: PC-12; assay: Neuroprotective activity in amyloid beta (1 to 42 residues) (unknown origin)-induced ROS production in rat PC12 cells assessed as intracellular ROS level at 10 uM pretreated for 36 hrs followed by incubation with DCFH-DA for 10 mins by flow cytometry analysis (reference value: 30.7%); format: functional
[6] = biological target: T1, Amine oxidase [flavin-containing] B (Homo sapiens, UniProt P27338); assay: Inhibition of human recombinant MAO-B expressed in baculovirus infected BTI insect cells using kynuramine as substrate at 100 nM incubated for 10 mins followed by substrate addition by fluorimetric analysis relative to control
T1 sequence (P27338 whole entry): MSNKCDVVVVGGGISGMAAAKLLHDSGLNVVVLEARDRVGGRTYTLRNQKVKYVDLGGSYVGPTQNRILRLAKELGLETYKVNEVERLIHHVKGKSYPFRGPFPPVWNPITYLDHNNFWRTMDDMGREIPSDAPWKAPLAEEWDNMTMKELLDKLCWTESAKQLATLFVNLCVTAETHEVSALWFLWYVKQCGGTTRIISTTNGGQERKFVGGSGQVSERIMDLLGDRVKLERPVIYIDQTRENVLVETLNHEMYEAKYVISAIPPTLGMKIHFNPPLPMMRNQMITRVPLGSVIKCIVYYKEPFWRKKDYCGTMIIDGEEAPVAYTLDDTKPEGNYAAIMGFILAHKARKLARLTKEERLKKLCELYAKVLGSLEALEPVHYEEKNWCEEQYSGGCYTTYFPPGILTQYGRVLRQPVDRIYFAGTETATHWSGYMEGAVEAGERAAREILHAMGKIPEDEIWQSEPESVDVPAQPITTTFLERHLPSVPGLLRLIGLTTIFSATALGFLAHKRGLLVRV

[7] = biological target: T1, Amine oxidase [flavin-containing] B; assay: Inhibition of human recombinant MAO-B expressed in baculovirus infected BTI insect cells using kynuramine as substrate incubated for 10 mins followed by substrate addition by fluorimetric analysis
[8] = Dissociation constant, pKa2 of compound for dissociation of the 3-hydroxyl group in 0.1 M KCl incubated for 1 min by UV-pH titration based spectrophotometric analysis; format: physicochemical
[9] = Dissociation constant, pKa1 of compound for protonation of the 4-oxo group in 0.1 M KCl incubated for 1 min by UV-pH titration based spectrophotometric analysis; format: physicochemical
[10] = Metal chelating activity assessed as iron chelation
[11] = Metal chelating activity assessed as Fe3+ complex formation by measuring stability constant for Fe(I)2 in using pre Fe+3 complexed compound (FeCl3) in 0.1 M KCl :DMSO solution UV-pH titration based spectrophotometric analysis
[12] = Metal chelating activity assessed as Fe3+ complex formation by measuring stability constant for Fe(I)3 in using pre Fe+3 complexed compound (FeCl3) in 0.1 M KCl :DMSO solution UV-pH titration based spectrophotometric analysis
[13] = Metal chelating activity assessed as Fe3+ complex formation by measuring stability constant for FeI in using pre Fe+3 complexed compound (FeCl3) in 0.1 M KCl :DMSO solution UV-pH titration based spectrophotometric analysis
[14] = Cytotoxicity against rat PC12 cells assessed as cell viability at 3.13 uM incubated for 24 hrs by MTT assay relative to control; format: cell-based, PC-12; details: read-out: Activity
[15] = Cytotoxicity against rat PC12 cells assessed as cell viability at 6.25 uM incubated for 24 hrs by MTT assay relative to control; format: cell-based, PC-12; details: read-out: Activity
[16] = Cytotoxicity against rat PC12 cells assessed as cell viability at 50 uM incubated for 24 hrs by MTT assay relative to control; format: cell-based, PC-12; details: read-out: Activity
[17] = Cytotoxicity against rat PC12 cells assessed as cell viability at 12.5 uM incubated for 24 hrs by MTT assay relative to control; format: cell-based, PC-12; details: read-out: Activity
[18] = Cytotoxicity against rat PC12 cells assessed as cell viability at 25 uM incubated for 24 hrs by MTT assay relative to control; format: cell-based, PC-12; details: read-out: Activity

Structure (SMILES)	inhibition at 0.1 µM [6]	IC50 [7]	pKa at 1 min [8]	pKa at 1 min [9]	pFe3+ [10]	log(activity) [11]	log(activity) [12]	log(activity) [13]	Time [1]	Activity [2]	Activity [3]	viability at 10 µM [4]	Activity [5]	viability at 24 h, 3.13 µM [14]	viability at 24 h, 6.25 µM [15]	viability at 24 h, 50 µM [16]	viability at 24 h, 12.5 µM [17]	viability at 24 h, 25 µM [18]
CC12CC3CC(C)(C1)CC(N)(C3)C2 [MEMANTINE]									13.42 s	5.19	3.52 m	55.2%	30.51%					
C#CCN(C)Cc1ccccc1 [PARGYLINE]	53%								20.85 s	3.81	4.37 m							
Nc1c2c(nc3ccccc13)CCCC2 [TACRINE]									18.03 s	4.63	4.28 m							
Cc1cc(=O)c(O)cn1CCNC(=O)c1cc2ccccc2oc1=O	44.8%	129 nM	9.05	3.3	17.3	23.3	31.8	12.9										
COc1ccc2cc(C(=O)NCCn3ccc(=O)c(O)c3C)c(=O)oc2c1	65.5%	87.9 nM	9.7	3.27	18.9	26.2	35.3	14.9	14.94 s	4.63	3.87 m	88.2%	8.2%	98.7%	99.9%	61.7%	98%	90.4%
Cc1c(O)c(=O)ccn1CCNC(=O)c1cc2ccc(OCc3cccc(F)c3)cc2oc1=O	49.1%	108 nM	9.65	3.32	17.1	24.7	33.3	14.1										
COc1cccc2cc(C(=O)NCCn3ccc(=O)c(O)c3C)c(=O)oc12	46%	111 nM	9.55	3.22	18.2	25.4	34.1	14.2										

The remaining compounds from weak to strong by IC50 [7], led by results:

inhibition at 0.1 µM [6]	IC50 [7]	pKa at 1 min [8]	pKa at 1 min [9]	pFe3+ [10]	log(activity) [11]	log(activity) [12]	log(activity) [13]	Structure (SMILES)	Time [1]	Activity [2]	Activity [3]	viability at 10 µM [4]	Activity [5]	viability at 24 h, 3.13 µM [14]	viability at 24 h, 6.25 µM [15]	viability at 24 h, 50 µM [16]	viability at 24 h, 12.5 µM [17]	viability at 24 h, 25 µM [18]
47.6%	143 nM	9.77	3.24	17	24.8	33.3	14.1	COc1ccc(COc2ccc3cc(C(=O)NCCn4ccc(=O)c(O)c4C)c(=O)oc3c2)cc1										
20.7%	143 nM	9.68	3.32	17.9	25.5	34.1	14.2	C#CCOc1ccc2cc(C(=O)NCCn3ccc(=O)c(O)c3C)c(=O)oc2c1										
49.1%	115 nM	9.74	3.2	17.2	24.9	33.6	14.1	Cc1c(O)c(=O)ccn1CCNC(=O)c1cc2ccc(OCc3cc(F)ccc3F)cc2oc1=O										
47.7%	100 nM	9.32	3.25	16.9	24.3	32	13.7	Cc1c(O)c(=O)ccn1CCNC(=O)c1cc2cc(OCc3ccccc3)ccc2oc1=O										
50.6%	98.6 nM	9.74	3.24	18.2	25.9	34.6	15.1	Cc1c(O)c(=O)ccn1CCNC(=O)c1cc2ccc(OCc3ccccc3[N+](=O)[O-])cc2oc1=O										
